Each compound was assayed against activated ERK2 (Homo sapiens (Human), UniProt P28482) (assay: Activated ERK2 kinase assay (AlphaScreen, ERKtide peptide phosphorylation)). Settings: […] ERK2, 200 nM ERKtide peptide, 35 μM ATP, 30 min preincubation; read-out: ERK2 IC50.
Sequence of activated ERK2 (P28482 whole entry): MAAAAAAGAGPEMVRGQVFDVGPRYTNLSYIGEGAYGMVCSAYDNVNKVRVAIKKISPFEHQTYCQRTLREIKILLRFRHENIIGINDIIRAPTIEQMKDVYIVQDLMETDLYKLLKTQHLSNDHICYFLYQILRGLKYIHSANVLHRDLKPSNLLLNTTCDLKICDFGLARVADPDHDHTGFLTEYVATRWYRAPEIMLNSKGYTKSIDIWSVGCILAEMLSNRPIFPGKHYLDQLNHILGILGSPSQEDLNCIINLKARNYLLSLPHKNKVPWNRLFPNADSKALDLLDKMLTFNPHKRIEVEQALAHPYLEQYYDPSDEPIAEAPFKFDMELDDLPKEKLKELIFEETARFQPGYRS
Format: biochemical
For `CC1(C)c2cnc(NC3CCOCC3)nc2CN1C(=O)NCc1ccccc1S(C)(=O)=O` [compound 112, 5,5-dimethyl-N-(2-(methylsulfonyl)benzyl)-2-((tetrahydro-2H-pyran-4-yl)amino)-5H-pyrrolo[3,4-d]pyrimidine-6(7H)-carboxamide], the IC50 was 806 nM. `Cc1cccc(S(=O)(=O)N2CCC[C@@H](NC(=O)N3Cc4nc(NC5CCOCC5)ncc4C3(C)C)C2)c1` [compound 113, (R)-5,5-dimethyl-2-((tetrahydro-2H-pyran-4-yl)amino)-N-(1-(m-tolylsulfonyl)piperidin-3-yl)-5H-pyrrolo[3,4-d]pyrimidine-6(7H)-carboxamide] gave an IC50 of 45 nM. `Cc1ccc(S(=O)(=O)N2CCC[C@@H](NC(=O)N3Cc4nc(NC5CCOCC5)ncc4C3(C)C)C2)cc1` [compound 114, (R)-5,5-dimethyl-2-((tetrahydro-2H-pyran-4-yl)amino)-N-(1-tosylpiperidin-3-yl)-5H-pyrrolo[3,4-d]pyrimidine-6(7H)-carboxamide] was tested, and the IC50 was 176 nM. Compound `C[C@@H](NC(=O)N1Cc2nc(NC3CCOCC3)ncc2C1(C)C)c1cc(F)cc(S(C)(=O)=O)c1` [compound 115, (R)-N-(1-(3-fluoro-5-(methylsulfonyl)phenyl)ethyl)-5,5-dimethyl-2-((tetrahydro-2H-pyran-4-yl)amino)-5H-pyrrolo[3,4-d]pyrimidine-6(7H)-carboxamide] has an IC50 of 2 nM. `C[C@H](NC(=O)N1Cc2nc(NC3CCOCC3)ncc2C1(C)C)c1cc(F)cc(S(C)(=O)=O)c1` [compound 116, (S)-N-(1-(3-fluoro-5-(methylsulfonyl)phenyl)ethyl)-5,5-dimethyl-2-((tetrahydro-2H-pyran-4-yl)amino)-5H-pyrrolo[3,4-d]pyrimidine-6(7H)-carboxamide] was tested, and the IC50 was 457 nM. `CC1(C)c2cnc(NC3CCOCC3)nc2CN1C(=O)N[C@H](CO)c1cccc(S(C)(=O)=O)c1` [compound 117, (S)-N-(2-hydroxy-1-(3-(methylsulfonyl)phenyl)ethyl)-5,5-dimethyl-2-((tetrahydro-2H-pyran-4-yl)amino)-5H-pyrrolo[3,4-d]pyrimidine-6(7H)-carboxamide] showed an IC50 of 7 nM. `CC1(C)c2cnc(NC3CCOCC3)nc2CN1C(=O)N[C@@H]1CCCN(S(=O)(=O)c2cccc(Cl)c2)C1` [compound 118, (R)-N-(1-((3-chlorophenyl)sulfonyl)piperidin-3-yl)-5,5-dimethyl-2-((tetrahydro-2H-pyran-4-yl)amino)-5H-pyrrolo[3,4-d]pyrimidine-6(7H)-carboxamide] showed an IC50 of 23 nM. `CC1(C)c2cnc(NC3CCOCC3)nc2CN1C(=O)N[C@@H]1CCCN(S(=O)(=O)c2ccc(Cl)cc2)C1` [compound 119, (R)-N-(1-((4-chlorophenyl)sulfonyl)piperidin-3-yl)-5,5-dimethyl-2-((tetrahydro-2H-pyran-4-yl)amino)-5H-pyrrolo[3,4-d]pyrimidine-6(7H)-carboxamide] showed an IC50 of 156 nM. For `CC1(C)c2cnc(NC3CCOCC3)nc2CN1C(=O)NCc1ccccc1F` [compound 120, N-(2-fluorobenzyl)-5,5-dimethyl-2-((tetrahydro-2H-pyran-4-yl)amino)-5H-pyrrolo[3,4-d]pyrimidine-6(7H)-carboxamide], the IC50 was 158 nM. Work on `CC1(C)c2cnc(NC3CCOCC3)nc2CN1C(=O)NCc1ccc(C(F)(F)F)cc1` [compound 121, 5,5-dimethyl-2-((tetrahydro-2H-pyran-4-yl)amino)-N-(4-(trifluoromethyl)benzyl)-5H-pyrrolo[3,4-d]pyrimidine-6(7H)-carboxamide] yielded an IC50 of 10 nM. `CC1(C)c2cnc(NC3CCOCC3)nc2CN1C(=O)NCc1ccc(C#N)cc1` [compound 122, N-(4-cyanobenzyl)-5,5-dimethyl-2-((tetrahydro-2H-pyran-4-yl)amino)-5H-pyrrolo[3,4-d]pyrimidine-6(7H)-carboxamide] showed an IC50 of 38 nM. `CC1(C)c2cnc(NC3CCOCC3)nc2CN1C(=O)NCc1ccc(Br)cc1` [compound 123, N-(4-bromobenzyl)-5,5-dimethyl-2-((tetrahydro-2H-pyran-4-yl)amino)-5H-pyrrolo[3,4-d]pyrimidine-6(7H)-carboxamide] gave an IC50 of 7 nM. Work on `CC1(C)c2cnc(NC3CCOCC3)nc2CN1C(=O)NCc1ccc(Cl)c(F)c1` [compound 124, N-(4-chloro-3-fluorobenzyl)-5,5-dimethyl-2-((tetrahydro-2H-pyran-4-yl)amino)-5H-pyrrolo[3,4-d]pyrimidine-6(7H)-carboxamide] yielded an IC50 of 6 nM. For `COc1ccc(CNC(=O)N2Cc3nc(NC4CCOCC4)ncc3C2(C)C)cc1` [compound 125, N-(4-methoxybenzyl)-5,5-dimethyl-2-((tetrahydro-2H-pyran-4-yl)amino)-5H-pyrrolo[3,4-d]pyrimidine-6(7H)-carboxamide], the IC50 was 56 nM. Work on `CC1(C)c2cnc(NC3CCOCC3)nc2CN1C(=O)NCc1ccc(Cl)c(Cl)c1` [compound 126, N-(3,4-dichlorobenzyl)-5,5-dimethyl-2-((tetrahydro-2H-pyran-4-yl)amino)-5H-pyrrolo[3,4-d]pyrimidine-6(7H)-carboxamide] yielded an IC50 of 1 nM. In the case of `Cc1cccc([C@@H](CO)NC(=O)N2Cc3nc(NC4CCOCC4)ncc3C2(C)C)c1` [compound 127, (S)-N-(2-hydroxy-1-(m-tolyl)ethyl)-5,5-dimethyl-2-((tetrahydro-2H-pyran-4-yl)amino)-5H-pyrrolo[3,4-d]pyrimidine-6(7H)-carboxamide], the IC50 is reported as 16 nM. `CC1(C)c2cnc(NC3CCOCC3)nc2CN1C(=O)N[C@H](CO)c1cccc(F)c1` [compound 128, (S)-N-(1-(3-fluorophenyl)-2-hydroxyethyl)-5,5-dimethyl-2-((tetrahydro-2H-pyran-4-yl)amino)-5H-pyrrolo[3,4-d]pyrimidine-6(7H)-carboxamide] showed an IC50 of 9 nM. `Cc1ccc(CNC(=O)N2Cc3nc(NC4CCOCC4)ncc3C2(C)C)cc1` [compound 129, 5,5-dimethyl-N-(4-methylbenzyl)-2-((tetrahydro-2H-pyran-4-yl)amino)-5H-pyrrolo[3,4-d]pyrimidine-6(7H)-carboxamide] gave an IC50 of 21 nM. `CC1(C)c2cnc(NC3CCOCC3)nc2CN1C(=O)NCc1cccc(S(=O)(=O)C2CC2)c1` [compound 130, N-(3-(cyclopropylsulfonyl)benzyl)-5,5-dimethyl-2-((tetrahydro-2H-pyran-4-yl)amino)-5H-pyrrolo[3,4-d]pyrimidine-6(7H)-carboxamide] showed an IC50 of 71 nM. With `C[C@@H](NC(=O)N1Cc2nc(NC3CCOCC3)ncc2C1(C)C)c1cccc(S(C)(=O)=O)c1` [compound 131, (R)-5,5-dimethyl-N-(1-(3-(methylsulfonyl)phenyl)ethyl)-2-((tetrahydro-2H-pyran-4-yl)amino)-5H-pyrrolo[3,4-d]pyrimidine-6(7H)-carboxamide] the IC50 was 9 nM. In the case of `CC1(C)c2cnc(NC3CCOCC3)nc2CN1C(=O)NCc1ccc(SC(F)(F)F)cc1` [compound 132, 5,5-dimethyl-2-((tetrahydro-2H-pyran-4-yl)amino)-N-(4-((trifluoromethyl)thio)benzyl)-5H-pyrrolo[3,4-d]pyrimidine-6(7H)-carboxamide], the IC50 is reported as 11 nM. For `CC1(C)c2cnc(NC3CCOCC3)nc2CN1C(=O)NCc1ccc(Oc2ccccc2)cc1` [compound 133, 5,5-dimethyl-N-(4-phenoxybenzyl)-2-((tetrahydro-2H-pyran-4-yl)amino)-5H-pyrrolo[3,4-d]pyrimidine-6(7H)-carboxamide], the IC50 was 11 nM. `CC1(C)c2cnc(NC3CCOCC3)nc2CN1C(=O)NCc1ccc([S+]([O-])C(F)(F)F)cc1` (stereo not drawn) [compound 134, 5,5-dimethyl-2-((tetrahydro-2H-pyran-4-yl)amino)-N-(4-((trifluoromethyl)sulfinyl)benzyl)-5H-pyrrolo[3,4-d]pyrimidine-6(7H)-carboxamide] was tested, and the IC50 was 39 nM. For `CC1(C)c2cnc(NC3CCOCC3)nc2CN1C(=O)NCc1cccc(C#N)c1` [compound 135, N-(3-cyanobenzyl)-5,5-dimethyl-2-((tetrahydro-2H-pyran-4-yl)amino)-5H-pyrrolo[3,4-d]pyrimidine-6(7H)-carboxamide], the IC50 was 38 nM. `C[C@@H](NC(=O)N1Cc2nc(NC3CCOCC3)ncc2C1(C)C)c1ccc(C#N)cc1` [compound 136, (R)-N-(1-(4-cyanophenyl)ethyl)-5,5-dimethyl-2-((tetrahydro-2H-pyran-4-yl)amino)-5H-pyrrolo[3,4-d]pyrimidine-6(7H)-carboxamide] was tested, and the IC50 was 21 nM. `CC1(C)c2cnc(NC3CCOCC3)nc2CN1C(=O)NCc1ccc(S(=O)(=O)C(F)(F)F)cc1` [compound 137, 5,5-dimethyl-2-((tetrahydro-2H-pyran-4-yl)amino)-N-(4-((trifluoromethyl)sulfonyl)benzyl)-5H-pyrrolo[3,4-d]pyrimidine-6(7H)-carboxamide] gave an IC50 of 19 nM. For `CC1(C)c2cnc(NC3CCOCC3)nc2CN1C(=O)N[C@H](CCO)c1ccccc1` [compound 138, (R)-N-(3-hydroxy-1-phenylpropyl)-5,5-dimethyl-2-((tetrahydro-2H-pyran-4-yl)amino)-5H-pyrrolo[3,4-d]pyrimidine-6(7H)-carboxamide], the IC50 was 73 nM. With `C[C@@H](NC(=O)N1Cc2nc(NC3CCOCC3)ncc2C1(C)C)c1ccc(S(C)(=O)=O)cc1` [compound 139, (R)-5,5-dimethyl-N-(1-(4-(methylsulfonyl)phenyl)ethyl)-2-((tetrahydro-2H-pyran-4-yl)amino)-5H-pyrrolo[3,4-d]pyrimidine-6(7H)-carboxamide] the IC50 was 32 nM. With `CC1(C)c2cnc(NC3CCOCC3)nc2CN1C(=O)N[C@@H]1CCN(Cc2ccccc2F)C1` [compound 146, (R)-N-(1-(2-fluorobenzyl)pyrrolidin-3-yl)-5,5-dimethyl-2-((tetrahydro-2H-pyran-4-yl)amino)-5H-pyrrolo[3,4-d]pyrimidine-6(7H)-carboxamide] the IC50 was 14 nM. `CC1(C)c2cnc(NC3CCOCC3)nc2CN1C(=O)NC1CC(CO)CN(Cc2ccccc2F)C1` (stereo not drawn) [compound 147, N-(1-(2-fluorobenzyl)-5-(hydroxymethyl)piperidin-3-yl)-5,5-dimethyl-2-((tetrahydro-2H-pyran-4-yl)amino)-5H-pyrrolo[3,4-d]pyrimidine-6(7H)-carboxamide] was tested, and the IC50 was 214 nM.

— patent US9546173B2 (Novartis AG, priority 2012, dated 2017)
